What was measured:
[1] = target: T1, human estrogen β receptor (hERβ) (Homo sapiens, UniProt Q92731); assay: competitive binding to cytoplasmic human estrogen receptor from recombinant CHO cells (β-binding); details: relative affinity (potency ratio), in percentage of the action of the reference compound in the assay; cytosol of recombinant CHO cells
T1 construct: expressed in transfected cells; host or cells: CHO cells with rat oxytocin promoter and luciferase reporter (no ERβ line named)
Experimental: (§1) Compounds are tested for their estrogen receptor activity in a binding assay and in a transactivation assay. Determination of competitive binding to cytoplasmic human estrogen receptor from rec.CHO cells is used to estimate the relative affinity (potency ratio) of a test compound for estrogen receptors present in the cytosol of recombinant Chinese hamster ovary (CHO) cells, stably transfected with the human estrogen receptor, as compared with estradiol (E2). Cytosol prepared from recombinant CHO cells, stably transfected with the human estrogen receptor. The cell line has been made within the Department of Biotechnology and Biochemistry (BBC) (N.V. Organon) and is known under the name CHO-ER (2B1). Reference compounds are ethinylestradiol and estriol. The data are expressed in percentage of the action of the reference compound in the assay

[2] = target: T1, human estrogen β receptor (hERβ); assay: transactivation assay in recombinant CHO cells (rat oxytocin promoter, luciferase reporter), β; assay type: cell-based; details: potency ratio, in percentage of the action of the reference compound in the assay
Experimental: (§2) Compounds are tested for their estrogen receptor activity in a binding assay and in a transactivation assay.
(§3) The antiestrogenic activity of compounds is determined in an in vitro bioassay with recombinant Chinese hamster ovary (CHO) cells stably co-transfected with the human estrogen receptor α (hERα) or β receptor (hERβ), the rat oxytocin promoter (RO) and the luciferase reporter gene (LUC). The antiestrogenic activity (potency ratio) of a test compound to inhibit the transactivation of the enzyme luciferase mediated via the estrogen receptor by the estrogen Org 2317 (estradiol, 1, 3, 5 (10)-estratriene-3,17β-diol) is compared with the standard Org 34790 (ICI 164.384; (7α,17β)-N-butyl-3,17-dihydroxy-N-methylestra-1,3,5 (10)-triene-7-undecanamide).
(§4) Test medium: Intact recombinant CHO cells stably co-transfected with the human estrogen receptor, the rat oxytocin promoter and the luciferase reporter gene. The cell line has been produced within the Department of Biotechnology and Biochemistry (BBC) (N.V. Organon) and is known under the name CHO-ERRO 2B1-1E9.
(§5) The data are expressed in percentage of the action of the reference compound in the assay

[3] = target: T2, human estrogen receptor α (hERα) (Homo sapiens, UniProt P03372); assay: competitive binding to cytoplasmic human estrogen receptor from recombinant CHO cells (α-binding); details: relative affinity (potency ratio), in percentage of the action of the reference compound in the assay; cytosol of recombinant CHO cells
T2 construct: expressed in transfected cells; host or cells: CHO cells, line CHO-ERRO 2B1-1E9, with rat oxytocin promoter and luciferase reporter
T2 sequence (P03372 1-595): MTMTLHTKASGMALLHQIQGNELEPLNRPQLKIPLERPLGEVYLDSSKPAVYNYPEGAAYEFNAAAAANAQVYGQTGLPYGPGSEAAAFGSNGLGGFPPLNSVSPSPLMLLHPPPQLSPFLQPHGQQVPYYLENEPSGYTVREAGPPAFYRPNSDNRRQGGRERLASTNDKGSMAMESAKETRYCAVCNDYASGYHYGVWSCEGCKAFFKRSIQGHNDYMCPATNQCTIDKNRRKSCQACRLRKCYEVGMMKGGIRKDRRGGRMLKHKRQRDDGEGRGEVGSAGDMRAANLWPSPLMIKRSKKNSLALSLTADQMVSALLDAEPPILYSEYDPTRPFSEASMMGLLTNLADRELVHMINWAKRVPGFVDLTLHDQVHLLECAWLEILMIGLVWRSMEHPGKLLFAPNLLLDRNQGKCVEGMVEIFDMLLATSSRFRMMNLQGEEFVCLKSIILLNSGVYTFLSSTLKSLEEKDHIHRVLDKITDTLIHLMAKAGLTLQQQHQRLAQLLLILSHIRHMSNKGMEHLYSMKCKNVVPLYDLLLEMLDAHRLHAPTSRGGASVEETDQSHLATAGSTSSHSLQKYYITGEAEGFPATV
Experimental: as §1

[4] = target: T2, human estrogen receptor α (hERα); assay: transactivation assay in recombinant CHO cells (rat oxytocin promoter, luciferase reporter), α; assay type: cell-based; details: potency ratio, in percentage of the action of the reference compound in the assay
Experimental: as §2, §3, §4, §5

T1 sequence (Q92731 whole entry): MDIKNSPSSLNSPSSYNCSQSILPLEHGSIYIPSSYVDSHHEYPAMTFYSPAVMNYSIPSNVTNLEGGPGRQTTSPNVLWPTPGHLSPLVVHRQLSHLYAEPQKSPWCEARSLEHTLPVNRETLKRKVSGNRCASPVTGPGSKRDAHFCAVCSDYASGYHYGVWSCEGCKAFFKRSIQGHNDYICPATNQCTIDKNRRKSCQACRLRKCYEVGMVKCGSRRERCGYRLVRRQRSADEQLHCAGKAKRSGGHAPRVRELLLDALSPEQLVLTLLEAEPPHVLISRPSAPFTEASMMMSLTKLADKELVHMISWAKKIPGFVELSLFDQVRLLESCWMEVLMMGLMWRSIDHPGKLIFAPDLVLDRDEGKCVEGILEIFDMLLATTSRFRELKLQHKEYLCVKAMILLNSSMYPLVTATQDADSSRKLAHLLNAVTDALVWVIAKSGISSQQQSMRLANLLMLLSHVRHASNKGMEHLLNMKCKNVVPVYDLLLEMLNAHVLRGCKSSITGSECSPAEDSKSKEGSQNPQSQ

Structure (SMILES)	β-binding [1]	β-transactivation [2]	α-binding. [3]	α-transactivation [4]
C#C[C@]1(O)CCC2C3CC[C@H]4C[C@@H](O)CCC4C3[C@@H](C(F)F)C[C@@]21C (stereo partly drawn) [Compound 21, (3β,5α,11β,17β)-11-difluoromethyl-19-norpregn-20-yne-3,17-diol]	0.2 percentage	0.1 percentage	8.6 percentage	7.7 percentage
C#C[C@]1(O)CCC2C3CC[C@H]4C[C@H](O)CCC4C3[C@@H](CCF)C[C@@]21C (stereo partly drawn) [Compound 32, (3α,5α,11β,17β)-11-(2-fluoroethyl)-19-norpregn-20-yne-3,17-diol]	<0.1 percentage	0.1 percentage	2,6 percentage	2.4 percentage
C#C[C@]1(O)[C@H](C)CC2C3C(C(=C)C[C@@]21C)C1CC[C@H](O)C[C@@H]1C[C@H]3C (stereo partly shown) [Compound 81]		0.1 percentage		27 percentage
C#C[C@]1(O)CCC2C3C(C4=C(C[C@H](O)CC4)C[C@H]3C)[C@@H](CCF)C[C@@]21C (stereo partly drawn) [Compound 55, (3α,7α,11β,17β)-11-(2-fluoroethyl)-7-methyl-19-norpregn-5(10)-en-20-yne-3,17-diol]	0.1 percentage	1.9 percentage	36 percentage	61.5 percentage
C#C[C@]1(O)CCC2C3C(C4=C(C[C@@H](O)CC4)C[C@H]3C)[C@@H](CCF)C[C@@]21C (stereo partly drawn) [Compound 54, (3β,7α,11β,17β)-11-(2-fluoroethyl)-7-methyl-19-norpregn-5(10)-en-20-yne-3,17-diol]	0.1 percentage	1.0 percentage	27,5 percentage	29.7 percentage
C#C[C@]1(O)CCC2C3CCC4=C(CC[C@@H](O)C4)C3[C@@H](CC=C)C[C@@]21C (stereo partly drawn) [Compound 11, (3α,11β,17β)-11-(2-propenyl)-19-norpregn-5(10)-en-20-yne-3,17-diol]	1.1 percentage	0.8 percentage	57 percentage	58 percentage
C#C[C@]1(O)CCC2C3CC[C@H]4C[C@@H](O)CCC4C3[C@@H](CCF)C[C@@]21C (stereo partly drawn) [Compound 31, (3β,5α,11β,17β)-11-(2-fluoroethyl)-19-norpregn-20-yne-3,17-diol]	0.1 percentage	0.2 percentage	37 percentage	9.6 percentage
C#C[C@]1(O)CCC2C3CCC4=C(CC[C@H](O)C4)C3[C@@H](CCC=C)C[C@@]21C (stereo partly drawn) [Compound 43, (3β,11β,17β)-11-(3-butenyl)-19-norpregn-5(10)-en-20-yne-3,17-diol]	0.1 percentage	<0.1 percentage	11.9 percentage	1.3 percentage
C#C[C@]1(O)CCC2C3CCC4=C(CC[C@@H](O)C4)C3[C@@H](CCC=C)C[C@@]21C (stereo partly drawn) [Compound 42, (3α,11β,17β)-11-(3-butenyl)-I9-norpregn-5(10)-en-20-yne-3,17-diol]	0.1 percentage	<0.04 percentage	29 percentage	2 percentage
